Earlier results on 2 molecules are cited in patent US8758737B2, “Evaporative cooling composition” (priority 2005, dated 2014).

The conditions of the series: stated as a property of the alcohol (evaporative cooling); temperature not given.

Regarding `CCO` [ethyl alcohol], the vapor pressure result is reported as “about 41.0 mmHg”.

On to `CC(C)O` [isopropyl alcohol], for which the vapor pressure was 310 mmHg.
